Read-outs that look alike come from different tables or passages of the source.
How the values were obtained:
ENPP-1 ECD = ENPP-1 ECD (Homo sapiens (Human), UniProt P22413); test: Assay 2: inhibition of ENPP1 hydrolysis of 2′,3′-cGAMP (AMP-Glo, […] enzyme); conditions: inhibition of ENPP1 hydrolysis of 2′,3′-cGAMP, no unit in Table 18 (Table 17 legend for this assay uses nM)
Method: Assay 2: Compared to the conditions in Assay 1, this assay has a larger dynamic range and ensures the system is under steady-state conditions by reducing the enzyme concentration in the assay.
Test compounds were plated in a 3× dilution scheme in a 384 well plate. […] AMP Detection solution (10 μL) was added to each well, the plate centrifuged and incubated for 60 min.

[1] = biological target: ENPP1 on MDA-MB-231 cells (Homo sapiens (Human), UniProt P22413); test: Assay 3: inhibition of ENPP1 hydrolysis of AMP p-nitrophenyl ester on MDA-MB-231 cells
Method: Hydrolysis of the p-nitrophenyl ester of AMP (pNP-AMP), an isostere of ATP, is selectively catalyzed by ENPP1 in the supernatant of MDA-MB-231 cell cultures. Inhibition of the hydrolysis of pNP-AMP by MDA-MB-231 at pH 7.4 and 37° C., is a good model of physiologically relevant activity of membrane-bound ENPP1 at disease-relevant expression levels.
MDA-MB-231 cells were harvested using TypLE Express Enzyme digestion and suspended in 100 μL of Leibovitz's L-15 Medium, 20% FBS, seeding the cells in a 96-well assay plate with 4.5×10^4 cells/well. Cells were incubated at 37° C. with 1% CO2 for 24 h. In a separate dilution plate, 2× of top dose of compound was prepared in phenol-red free 1640 medium without FBS and then 1:3 serial diluted in the same medium. The cell culture medium of L15 medium was aspirated carefully and cells were washed with PBS once, and 50 μL per well of test compound or DMSO blank were added to the assay plate. Substrate mix (50 μL; 0.5 mM pNP-AMP in phenol-red free 1640 media without FBS) was added for a pNP-AMP final concentration of 0.25 mM. The system was incubated at 37° C. for 3 h.

[2] = read-out: Assay 3 (KI, app), apparent KI from IC50 via Cheng/Prusoff, pNP-AMP […], MDA-MB-231 cells, pH 7.4, 37° C., 3 h, unit inferred

Sequence of ENPP1 on MDA-MB-231 cells (P22413 whole entry): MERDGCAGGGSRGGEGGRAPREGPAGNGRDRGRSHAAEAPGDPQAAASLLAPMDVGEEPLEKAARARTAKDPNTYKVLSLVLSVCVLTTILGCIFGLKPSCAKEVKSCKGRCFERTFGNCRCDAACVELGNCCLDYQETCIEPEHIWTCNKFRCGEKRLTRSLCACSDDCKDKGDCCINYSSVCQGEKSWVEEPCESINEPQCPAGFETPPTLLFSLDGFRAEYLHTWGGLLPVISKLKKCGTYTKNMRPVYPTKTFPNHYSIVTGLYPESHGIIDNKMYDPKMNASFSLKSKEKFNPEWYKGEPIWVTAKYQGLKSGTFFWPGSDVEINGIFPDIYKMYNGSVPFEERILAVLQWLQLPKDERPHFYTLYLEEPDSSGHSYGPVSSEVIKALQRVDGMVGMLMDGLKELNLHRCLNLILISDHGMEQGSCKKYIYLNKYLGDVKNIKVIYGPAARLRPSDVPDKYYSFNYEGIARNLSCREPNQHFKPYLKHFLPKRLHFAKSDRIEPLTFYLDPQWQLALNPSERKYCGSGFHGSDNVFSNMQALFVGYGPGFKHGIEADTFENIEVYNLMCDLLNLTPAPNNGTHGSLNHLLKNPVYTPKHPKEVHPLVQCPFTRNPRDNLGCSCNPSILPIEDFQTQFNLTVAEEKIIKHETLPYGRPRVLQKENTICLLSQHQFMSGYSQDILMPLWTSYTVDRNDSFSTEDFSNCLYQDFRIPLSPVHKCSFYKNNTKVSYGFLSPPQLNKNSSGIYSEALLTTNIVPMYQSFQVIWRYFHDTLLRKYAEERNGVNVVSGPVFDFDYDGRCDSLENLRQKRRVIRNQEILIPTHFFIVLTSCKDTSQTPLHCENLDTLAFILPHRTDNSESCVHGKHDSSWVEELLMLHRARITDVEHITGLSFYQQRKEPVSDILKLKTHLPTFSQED
Sequence of ENPP-1 ECD (P22413 98-925): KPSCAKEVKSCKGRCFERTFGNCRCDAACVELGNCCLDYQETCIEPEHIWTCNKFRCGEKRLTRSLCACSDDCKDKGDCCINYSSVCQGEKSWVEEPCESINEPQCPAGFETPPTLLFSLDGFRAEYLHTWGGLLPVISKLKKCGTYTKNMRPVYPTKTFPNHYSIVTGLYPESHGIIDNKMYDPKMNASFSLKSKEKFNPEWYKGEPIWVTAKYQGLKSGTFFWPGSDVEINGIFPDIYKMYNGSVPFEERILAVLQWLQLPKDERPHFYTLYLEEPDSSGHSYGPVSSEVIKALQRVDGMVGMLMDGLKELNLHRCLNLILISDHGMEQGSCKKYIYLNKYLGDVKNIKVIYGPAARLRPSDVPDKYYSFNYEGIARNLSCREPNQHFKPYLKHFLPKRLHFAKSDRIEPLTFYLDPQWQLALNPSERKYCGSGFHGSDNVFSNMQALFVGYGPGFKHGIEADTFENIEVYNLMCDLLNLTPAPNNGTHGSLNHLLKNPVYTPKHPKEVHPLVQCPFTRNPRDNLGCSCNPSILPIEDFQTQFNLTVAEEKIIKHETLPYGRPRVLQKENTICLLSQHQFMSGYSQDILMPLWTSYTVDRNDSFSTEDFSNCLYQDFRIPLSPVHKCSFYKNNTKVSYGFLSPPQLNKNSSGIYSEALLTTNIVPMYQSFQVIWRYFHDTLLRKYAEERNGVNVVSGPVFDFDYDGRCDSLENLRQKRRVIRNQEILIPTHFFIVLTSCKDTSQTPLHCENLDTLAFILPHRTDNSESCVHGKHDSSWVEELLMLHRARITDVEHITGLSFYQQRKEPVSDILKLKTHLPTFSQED

Row | Structure (SMILES) | Ki (ENPP-1 ECD; Assay 2 (KI)) [nM] | Ki [1] [nM] | Ki (ENPP-1 ECD; read-out: Assay 2 (KI)) [nM] | Ki [1, 2] [nM]
1 | COc1cccc2c(N3CCC(O)(CS(=N)(=O)C4CCC4)CC3)ncnc12 (centres unmarked) [Compound 191, cyclobutyl({[4-hydroxy-1-(8-methoxyquinazolin-4-yl)piperidin-4-yl]methyl})imino-λ^6-sulfanone] | 0.34 | 15 | – | –
2 | COc1cccc2c(N3CCC(O)(CS(=N)(=O)C4CC4)CC3)ncnc12 (centres unmarked) [Compound 193, cyclopropyl({[4-hydroxy-1-(8-methoxyquinazolin-4-yl)piperidin-4-yl]methyl})imino-λ^6-sulfanone] | 0.023 | 0.62 | – | –
3 | COc1cccc2c(N3CCC(O)(C[S@](=N)(=O)C4CC4)CC3)ncnc12 [Compound 193b] | – | – | 0.012 | 0.36
4 | CCOc1cccc2c(N3CCC(O)(CS(C)(=N)=O)CC3)ncnc12 (centres unmarked) [Compound 196, {[1-(8-ethoxyquinazolin-4-yl)-4-hydroxypiperidin-4-yl]methyl}(imino)methyl-λ^6-sulfanone] | 0.091 | 2.3 | – | –
5 | CCOc1cccc2c(N3CCC(CS(C)(=N)=O)CC3)c(C#N)cnc12 (centres unmarked) [Compound 197, 8-ethoxy-4-(4-{[imino(methyl)oxo-λ^6-sulfanyl]methyl}piperidin-1-yl)quinoline-3-carbonitrile] | 0.04 | 2.3 | – | –
6 | COc1cccc2c(N3CCC(O)(CS(C)(=N)=O)CC3)c(C#N)cnc12 (centres unmarked) [Compound 198, 4-(4-hydroxy-4-{[imino(methyl)oxo-λ^6-sulfanyl]methyl}piperidin-1-yl)-8-methoxyquinoline-3-carbonitrile] | 0.014 | 0.2 | – | –
7 | COc1cccc2c(N3CCC(O)(C[S@@](C)(=N)=O)CC3)c(C#N)cnc12 [Compound 198a] | – | – | 0.0025 | 0.086
8 | COc1cccc2c(N3CCC(O)(CS(C)(=N)=O)CC3)nc(C)nc12 (centres unmarked) [Compound 199, {[4-hydroxy-1-(8-methoxy-2-methylquinazolin-4-yl)piperidin-4-yl]methyl}(imino)methyl-λ^6-sulfanone] | 0.43 | 8.8 | – | –
9 | CS(=N)(=O)CC1CCN(c2c(C#N)cnc3c(OCF)cccc23)CC1 (centres unmarked) [Compound 200, 8-(fluoromethoxy)-4-(4-{[imino(methyl)oxo-λ^6-sulfanyl]methyl}piperidin-1-yl)quinoline-3-carbonitrile] | 0.019 | 0.41 | – | –
10 | COc1cccc2c(N3CCC(CS(C)(=N)=O)CC3)c(C#N)c(C)nc12 (centres unmarked) [Compound 201, 4-(4-{[imino(methyl)oxo-λ^6-sulfanyl]methyl}piperidin-1-yl)-8-methoxy-2-methylquinoline-3-carbonitrile] | 0.69 | 12 | – | –
11 | COc1cc2nccc(N3CCC4(CC3)CCN(S(C)(=N)=O)C4)c2cc1F (centres unmarked) [Compound 205, [8-(6-fluoro-7-methoxyquinolin-4-yl)-2,8-diazaspiro[4.5]decan-2-yl](imino)methyl-λ^6-sulfanone] | 0.032 | 2.2 | – | –
12 | COc1cc2nccc(N3CCC4(CC3)CCN([S@@](C)(=N)=O)C4)c2cc1F [Compound 205b] | – | – | 0.0057 | 0.12
13 | COc1cc2ncnc(N3CCC4(CCN(S(C)(=N)=O)CC4)C3)c2cc1OC (centres unmarked) [Compound 207, [2-(6,7-dimethoxyquinazolin-4-yl)-2,8-diazaspiro[4.5]decan-8-yl](imino)methyl-λ^6-sulfanone] | 0.037 | 3.3 | – | –
14 | COc1cc2nccc(N3CCC4(CC3)CCN(S(C)(=N)=O)C4)c2cc1OC (centres unmarked) [Compound 208, [8-(6,7-dimethoxyquinolin-4-yl)-2,8-diazaspiro[4.5]decan-2-yl](imino)methyl-λ^6-sulfanone] | 0.021 | 0.21 | – | –
15 | COc1cc2nccc(N3CCC4(CC3)CCN([S@@](C)(=N)=O)C4)c2cc1OC [Compound 208a] | – | – | 1.1 | 55
16 | COc1cc2nccc(N3CCC4(CC3)CCN([S@](C)(=N)=O)C4)c2cc1OC [Compound 208b] | – | – | 0.0078 | 0.16
17 | COc1cc2ncc(C#N)c(N3CCC4(CC3)CCN(S(C)(=N)=O)C4)c2cc1F (centres unmarked) [Compound 210, 6-fluoro-4-{2-[imino(methyl)oxo-λ^6-sulfanyl]-2,8-diazaspiro[4.5]decan-8-yl}-7-methoxyquinoline-3-carbonitrile] | 0.024 | 2.5 | – | –
18 | COc1cc2nncc(N3CCC4(CC3)CCN(S(C)(=N)=O)C4)c2cc1OC (centres unmarked) [Compound 211, [8-(6,7-dimethoxycinnolin-4-yl)-2,8-diazaspiro[4.5]decan-2-yl](imino)methyl-λ^6-sulfanone] | 0.022 | 0.97 | – | –
19 | COc1cc2nncc(N3CCC4(CC3)CCN([S@](C)(=N)=O)C4)c2cc1OC [Compound 211a] | – | – | 0.023 | 2.2
20 | COc1cc2ncnc(N3CCC4(CC3)CCN(S(C)(=N)=O)C4)c2cc1Cl (centres unmarked) [Compound 212, [8-(6-chloro-7-methoxyquinazolin-4-yl)-2,8-diazaspiro[4.5]decan-2-yl](imino)methyl-λ^6-sulfanone] | 0.047 | 4.4 | – | –

Row | Structure (SMILES) | Ki (ENPP-1 ECD; Assay 2 (KI)) [nM] | Ki [1] [nM] | Ki (ENPP-1 ECD; read-out: Assay 2 (KI)) [nM] | Ki [1, 2] [nM]
21 | COc1cc2nc(C)nc(N3CCC4(CC3)CCN(S(C)(=N)=O)C4)c2cc1OC (centres unmarked) [Compound 213, [8-(6,7-dimethoxy-2-methylquinazolin-4-yl)-2,8-diazaspiro[4.5]decan-2-yl](imino)methyl-λ^6-sulfanone] | 0.058 | 2.8 | – | –
22 | COc1cccc2c(N3CC4(CCN(S(C)(=N)=O)C4)C3)ncnc12 (centres unmarked) [Compound 217, imino[2-(8-methoxyquinazolin-4-yl)-2,6-diazaspiro[3.4]octan-6-yl]methyl-λ^6-sulfanone] | 0.29 | 8 | – | –
23 | COc1cc2nccc(N3CCC4(CC3)CCN(S(=N)(=O)C3CC3)C4)c2cc1F (centres unmarked) [Compound 218, {cyclopropyl[8-(6-fluoro-7-methoxyquinolin-4-yl)-2,8-diazaspiro[4.5]decan-2-yl]imino-λ^6-sulfanyl}one] | 0.022 | 0.69 | – | –
24 | COc1cc2nccc(N3CCC4(CC3)CCN([S@@](=N)(=O)C3CC3)C4)c2cc1F [Compound 218a] | – | – | 0.0078 | 0.29
25 | COc1cc2nncc(N3CCC4(CC3)CCN([S@](C)(=N)=O)C4)c2cc1Cl [Compound 219a] | – | – | 0.071 | 1.2
26 | COc1cc2nnc(C)c(N3CCC4(CC3)CCN(S(C)(=N)=O)C4)c2cc1Cl (centres unmarked) [Compound 220, [8-(6-chloro-7-methoxy-3-methylcinnolin-4-yl)-2,8-diazaspiro[4.5]decan-2-yl](imino)methyl-λ^6-sulfanone] | 0.25 | 11 | – | –
27 | CCS(=N)(=O)N1CCC2(CCN(c3ncnc4cc(OC)c(F)cc34)CC2)C1 (centres unmarked) [Compound 221, ethyl[8-(6-fluoro-7-methoxyquinazolin-4-yl)-2,8-diazaspiro[4.5]decan-2-yl]imino-λ^6-sulfanone] | 0.12 | 4.6 | – | –
28 | COc1cccc2c(N3CC4(CCN(S(C)(=N)=O)C4)C3)c(C#N)cnc12 (centres unmarked) [Compound 222, 4-{6-[imino(methyl)oxo-λ^6-sulfanyl]-2,6-diazaspiro[3.4]octan-2-yl}-8-methoxyquinoline-3-carbonitrile] | 0.07 | 1.1 | – | –
29 | COc1cccc2c(N3CC4(CCN([S@@](C)(=N)=O)C4)C3)c(C#N)cnc12 [Compound 222a] | – | – | 0.034 | 1.2
30 | COc1cccc2c(N3CCC4(C3)CN(S(C)(=N)=O)C4)ncnc12 (centres unmarked) [Compound 223, imino[6-(8-methoxyquinazolin-4-yl)-2,6-diazaspiro[3.4]octan-2-yl]methyl-λ^6-sulfanone] | 0.11 | 3.2 | – | –
31 | COc1cccc2c(N3CCC4(C3)CN([S@](C)(=N)=O)C4)ncnc12 [Compound 223a] | – | – | 0.047 | 3.1
32 | COc1cccc2c(N3CCC4(C3)CN([S@@](C)(=N)=O)C4)ncnc12 [Compound 223b] | – | – | 19 | 460
33 | COc1cc2ncnc(N3CCC4(CC3)CCN(S(C)(=N)=O)C4)c2cc1F (centres unmarked) [Compound 224, [8-(6-fluoro-7-methoxyquinazolin-4-yl)-2,8-diazaspiro[4.5]decan-2-yl](imino)methyl-λ^6-sulfanone] | 0.019 | 1.1 | – | –
34 | COc1cc2nncc(N3CCC4(CC3)CCN(S(=N)(=O)C3CC3)C4)c2cc1Cl (centres unmarked) [Compound 225, {[8-(6-chloro-7-methoxycinnolin-4-yl)-2,8-diazaspiro[4.5]decan-2-yl](cyclopropyl)imino-λ^6-sulfanyl}one] | 0.096 | 6.8 | – | –
35 | COc1cc2nccc(N3CCC4(CC3)CCN(S(C)(=N)=O)C4)c2cc1C#N (centres unmarked) [Compound 226, 4-{2-[imino(methyl)oxo-λ^6-sulfanyl]-2,8-diazaspiro[4.5]decan-8-yl}-7-methoxyquinoline-6-carbonitrile] | 1.2 | 43 | – | –
36 | COc1cc2ncc(F)c(N3CCC4(CC3)CCN(S(C)(=N)=O)C4)c2cc1OC (centres unmarked) [Compound 227, [8-(3-fluoro-6,7-dimethoxyquinolin-4-yl)-2,8-diazaspiro[4.5]decan-2-yl](imino)methyl-λ^6-sulfanone] | 0.018 | 0.51 | – | –
37 | COc1cc2nnc(C)c(N3CCC4(CC3)CCN(S(C)(=N)=O)C4)c2cc1OC (centres unmarked) [Compound 228, [8-(6,7-dimethoxy-3-methylcinnolin-4-yl)-2,8-diazaspiro[4.5]decan-2-yl](imino)methyl-λ^6-sulfanone] | 0.25 | 8.7 | – | –
38 | COc1cc2nccc(OC[C@@H]3CCN([S@](C)(=N)=O)C3)c2cc1F [Compound 229b] | – | – | 0.37 | 3.6
39 | COc1cc2nccc(OC[C@H]3CCN([S@@](C)(=N)=O)C3)c2cc1F [Compound 230b] | – | – | 0.38 | 6.6
40 | COc1ccc2c(COc3ccc(S(C)(=N)=O)cc3)ccnc2c1 (centres unmarked) [Compound 231, imino({4-[(7-methoxyquinolin-4-yl)methoxy]phenyl})methyl-λ^6-sulfanone] | 1.2 | 56 | – | –
